The source of these data is patent publication US20230332145A1, “BIFUNCTIONAL MOLECULES AND METHODS OF USING THEREOF” (Flagship Pioneering, Inc., priority 2020, published 2023).

The subject of one data set is MYC expression. In words: MYC expression by qPCR after RNAiMax transfection of HEK293T cells. The class given is cell-based, human. The following applies: for MYC expression change, linker comparison: 400 to 3.125 nM. As for the experimental part:
HEK293T cells were seeded at 30k cells/well in a 96 well tissue culture vessel day before transfection. […] Transfected cells were allowed to recover and were harvested after 24 hours. MYC expression was measured by RNA level using qPCR analysis after transfection with each of the bi-functional molecule or control molecules. Cell samples for qPCR analysis were prepared by Cells to Ct 1 Step TaqMan Kit (ThermoFisher A25602) following manufractuer’s recommendations. qPCR assays were performed using Cells to Ct qPCR master mix, gene specific TaqMan probe (ThermoFisher), and Cells to Ct cell lysate. Relative levels of MYC were normalized to β-actin as a stably expressed control. MYC TaqMan probe: ThermoFisher Assay ID Hs00153408_ml; ACTB TaqMan probe: ThermoFisher Assay ID Hs01060665_g1. During qPCR amplification, FAM fluorescence intensity for each target gene was recorded by QuantStudio7 qPCR instrument (ThermoFisher Scientific) as a measurement of the amount of double-stranded DNA produced during each PCR cycle. Ct values for each gene in each sample were computed by the instrument software based on the amplification curves, and used to determine relative expression values for target and β-actin in each sample.
Background: Real-time PCR tracks product formation cycle by cycle.

The subject of another data set is MYC protein. The data set can be described thus: MYC protein, FRET based ELISA (Human c-Myc Cell-based kit) in HEK293T cells. The following applies: 200 nM, 24 hours. As for the experimental part: PVT1 ASO1-JQ1 and control molecules were transfected to HEK293T cells at 400, 200, 100, and 50 nM with RNAiMax. PVT1 ASO1-JQ1:RNAiMax ratios in transfection are: 400 nM: 1.2 ul, 200 nM:0.6 ul, 100 nM:0.3 ul, 50 nM:0.15 ul. Cells were harvested 24 hours after transfection and MYC expression changes was monitored by qPCR and by enzyme-linked immunosorbent assay (ELISA). […] For a fluorescence resonance energy transfer (FRET) based ELISA assays, cell samples were prepared by Human c-Myc Cell-based kit (Cisbio # 63ADK053PEH) following manufractuer’s recommendation. MYC protein is detected in a sandwich assay using two specific antibodies, labeled with Europium Cryptate (donor) and with d2 (acceptor). FRET signal was read with Varioskan LUX Multimode Microplate Reader (ThermoFisher) with a 6 hr kinetic read.

The next data set concerns SCN1A expression. In words: SCN1A expression by qPCR after transfection of SK-N-AS cells. The format is cell-based, human. The following applies: 100 to 3.125 nM, 48 hours. Here is the method: SCN1A-ASO1 shown in Table 5A was designed against the exonic region of SCN1A mRNA. SCN1A ASO1-Linker1-JQ1 was transfected to SK-N-AS cells at 100, 50, 25, 12.5, 6.25, and 3.125 nM with RNAiMax. SCN1A ASO1-JQ1:RNAiMax ratios in transfection were: 100 nM:0.3 ul, 50 nM and below:0.15 ul. Cells were harvested 48 hours after transfection and SCN1A expression changes were monitored by qPCR. TaqMan probe used in the assay for quantitation: SCN1A Hs00374696_ml (ThermoFisher), GAPDH Hs02786624_g1 (ThermoFisher).
SCN1A ASO1-Linker1-iBET762 was transfected to SK-N-AS cells at 100, 50, 25, 12.5, 6.25, and 3.125 nM with RNAiMax. SCN1A ASO1-iBET762:RNAiMax ratios in transfection are: 100 nM:0.3 ul, 50 nM and below:0.15 ul. Cells were harvested 48 hours after transfection and SCN1A expression changes were monitored by qPCR. TaqMan probe used in the assay for quantitation: SCN1A Hs00374696_m1 (ThermoFisher), GAPDH Hs02786624_g1 (ThermoFisher). […] SCN1A encodes for the alpha-1 subunit of the voltage-gated sodium channel (Na(V)1.1), and patients with SCN1A loss of function mutations suffers from Dravet syndrome, a neurological disorder.

The subject of a further data set is SYNGAP1 expression. The data set can be described thus: SYNGAP1 expression by qPCR after transfection of HEK293T cells. The format is cell-based, human. The following applies: 200 nM, 48 hours. Here is the method: SYNGAP1 ASO1-JQ1 to SYNGAP1 ASO4-JQ1 were transfected to HEK293T cells at 200, and 67 nM with RNAiMax. SYNGAP1 ASO-JQ1:RNAiMax ratios in transfection are: 200 nM:0.6 ul, 67 nM:0.2 ul. Cells were harvested 48 hours after transfection and SYNGAP1 expression changes was monitored by qPCR. TaqMan probe used in the assay for quantitation: SYNGAP1: Assay ID Hs00405348_m1 (ThermoFisher), ACTB Assay ID Hs01060665_g1(ThermoFisher).

In data set [1] the test system is BET family of bromodomain proteins. The following applies: cited from earlier work.
[2] abbreviates: HEK293T, 400, 133, 44, 15 nM, 24 hours.

In the oligonucleotide strings, read from the 5' end, every base follows the letter of its sugar. An asterisk marks phosphorothioate; unmarked linkages are phosphodiester. Other units and linkages are bracketed, terminal groups are in braces. A string of capitals states the bases alone. e = 2'-O-(2-methoxyethyl) (MOE); [5mC] = 5-methylcytosine

As for “PVT1 ASO1-JQ1: PVT1 ASO1 (SEQ ID NO: 7) conjugated to JQ1 with linker 2 (eG*eT*eA*eA*eG*eT*eG*eG*eA*eA*eT*eT*e[5mC]*e[5mC]*eA*eG*eT*eT*eG; JQ1 conjugated via linker 2, further chemistry not fully specified)”, the “MYC response at top dose of titration” value in the data set on MYC expression (HEK293T, 200 nM, 24 hours) is recorded as “slight decrease of MYC response”. Moreover, the “MYC expression change upon dose titration” value in the data set on MYC expression (HEK293T, 200, 100, 50, 25, 12.5, 6.25, 3.125 nM, 24 hours) is “dose dependent response”. Moreover, the “MYC expression change (RNA transcripts)” value in the data set with MYC expression (HEK293T, 400, 200, 100, 50 nM, 24 hours) was “increase of MYC RNA transcripts”. In addition, the “MYC expression change, linker comparison” value in the data set on MYC expression (HEK293T, 24 hours) was “both active and increased MYC expression to similar levels”. In addition, the “increase in MYC expression” value in the data set with MYC expression (HEK293T, transfected at 400, 200, 100, 50 nM, harvested after 24 hours) is “about 4 fold”. Besides, the “MYC protein level increase” value with MYC protein is recorded as “about 2 fold”.

As for “SCN1A ASO1-JQ1: SCN1A ASO1 (SEQ ID NO: 46), 5′ Azide-N modified LNA mixmer, conjugated to JQ1 with linker 1 (AGTAAGACTGGGGTTGTT; 5' azide, LNA mixmer, JQ1 via linker 1, chemistry not fully specified)”, the “increase in SCN1A expression” value in the data set with SCN1A expression is reported as “about 2 fold”.

As for “SYNGAP1 ASO2-JQ1: SYNGAP1 ASO2 (SEQ ID NO: 48) conjugated to JQ1 using Linker 2 (ATCACCTCCTATAGCTCCT; 5' amino modified, conjugated to JQ1 via linker 2, further chemistry not given here)”, the “increase in SYNGAP1 expression” value with SYNGAP1 expression was “about 2 fold”.

For “PVT1-Scr8: JQ1 conjugate of partially scrambled PVT1 ASO1 sequence scr8 (SEQ ID NO: 70) (eG*eT*eA*eA*eG*eT*eG*eG*eA*eA*eT*eT*e[5mC]*e[5mC]*eA*eT*eG*eG*eT; JQ1 conjugate, further chemistry not fully specified)”, in the data set with MYC expression (HEK293T, 100 nM, 24 hours), the MYC expression change entry is listed as “less impact on the activities”.

Regarding “PVT1 ASO25-JQ1: PVT1 ASO25 (SEQ ID NO: 31) conjugated to JQ1 with linker 2 (TTATAGACTAGATTGGCCAG; conjugated to JQ1 via linker 2, modification pattern not given here)”, the MYC expression change result in the data set on MYC expression (setting [2]) was “increased MYC expression level similar to PVT1 ASO1-JQ1”.

As for “PVT1-ASO1-Linker1-JQ1: PVT1 ASO1 (SEQ ID NO: 7) conjugated to JQ1 with linker 1 (eG*eT*eA*eA*eG*eT*eG*eG*eA*eA*eT*eT*e[5mC]*e[5mC]*eA*eG*eT*eT*eG; JQ1 conjugated via linker 1, further chemistry not fully specified)”, in the data set on MYC expression (HEK293T, 24 hours), the “MYC expression change, linker comparison” value was “both active and increased MYC expression to similar levels”.

As for “PVT1-Scr4: JQ1 conjugate of partially scrambled PVT1 ASO1 sequence scr4 (SEQ ID NO: 66) (eG*eT*eA*eA*eG*eT*eG*eG*eA*eA*eT*eT*e[5mC]*e[5mC]*eA*eT*eT*eG*eG; JQ1 conjugate, further chemistry not fully specified)”, the MYC expression change result in the data set with MYC expression (HEK293T, 100 nM, 24 hours) is listed as “less impact on the activities”.

Turning to (-)JQ1, in data set [1], the “weaker biochemical activity as compared to JQ1” value was over 100 x.

Take “PVT1 ASO24-JQ1: PVT1 ASO24 (SEQ ID NO: 30) conjugated to JQ1 with linker 2 (CATTGAAGGATCATGGTCAT; conjugated to JQ1 via linker 2, modification pattern not given here)”: in the data set on MYC expression (setting [2]), the MYC expression change result is reported as “increased MYC expression level similar to PVT1 ASO1-JQ1”.

In the case of “PVT1-Scr1: JQ1 conjugate of partially scrambled PVT1 ASO1 sequence scr1 (SEQ ID NO: 63) (eT*eG*eA*eA*eG*eT*eG*eG*eA*eA*eT*eT*e[5mC]*e[5mC]*eA*eG*eT*eT*eG; JQ1 conjugate, further chemistry not fully specified)”, the MYC expression change entry in the data set on MYC expression (HEK293T, 100 nM, 24 hours) is given as “less impact on the activities”.
